Values quoted from earlier work in US9095607B2, “Gel for topical application of clove essential oil with broad spectrum anti-inflammatory action and method of preparing same” (priority 2013, dated 2015).

Compound | LPS-induced NF-kB activation (NF-kB) | LPS-induced neutrophil migration (neutrophil migration) | in vivo up-regulation of kinin B1 receptors (kinin B1 receptors)
C/C1=C\CC/C(C)=C/CC(C)(C)/C=C/C1 [Alpha-humulene] | inhibit | inhibit | ability to prevent
C=C1CC/C=C(\C)CC[C@@H]2[C@@H]1CC2(C)C [Beta-caryophyllene] | inhibit | inhibit | –
